Measurements taken from the kinase profiling compilation of Christmann-Franck et al. (2016).

What was measured:
Experiment in all cases: radiometric filter-binding kinase assay
DYRK2 (human) = DYRK2 (human) (UniProt Q92630)
EPHB3 (human) = EPHB3 (human) (UniProt P54753)
MARK1 (human) = MARK1 (human) (UniProt Q9P0L2)
MAP3K7 TAB1 (human) = MAP3K7 TAB1 (human) (UniProt Q15750+O43318)
MST4 (human) = MST4 (human) (UniProt Q9P289)
MARK2 (human) = MARK2 (human) (UniProt Q7KZI7)
AURKA (human) = AURKA (human) (UniProt O14965)
Chain of AURKA (human) (O14965 whole entry, looked up): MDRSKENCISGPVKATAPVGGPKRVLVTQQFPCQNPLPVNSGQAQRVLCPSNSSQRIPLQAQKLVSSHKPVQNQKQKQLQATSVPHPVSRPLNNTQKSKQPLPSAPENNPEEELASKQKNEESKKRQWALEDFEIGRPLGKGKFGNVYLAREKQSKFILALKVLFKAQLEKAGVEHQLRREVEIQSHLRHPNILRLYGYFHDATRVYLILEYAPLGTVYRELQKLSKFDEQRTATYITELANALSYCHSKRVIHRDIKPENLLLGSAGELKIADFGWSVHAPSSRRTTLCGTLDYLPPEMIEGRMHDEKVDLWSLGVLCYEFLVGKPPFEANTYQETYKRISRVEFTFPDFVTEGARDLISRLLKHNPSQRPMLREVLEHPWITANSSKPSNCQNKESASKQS

BRSK1 (human) = BRSK1 (human) (UniProt Q8TDC3)
Chain of BRSK1 (human) (Q8TDC3 whole entry, looked up): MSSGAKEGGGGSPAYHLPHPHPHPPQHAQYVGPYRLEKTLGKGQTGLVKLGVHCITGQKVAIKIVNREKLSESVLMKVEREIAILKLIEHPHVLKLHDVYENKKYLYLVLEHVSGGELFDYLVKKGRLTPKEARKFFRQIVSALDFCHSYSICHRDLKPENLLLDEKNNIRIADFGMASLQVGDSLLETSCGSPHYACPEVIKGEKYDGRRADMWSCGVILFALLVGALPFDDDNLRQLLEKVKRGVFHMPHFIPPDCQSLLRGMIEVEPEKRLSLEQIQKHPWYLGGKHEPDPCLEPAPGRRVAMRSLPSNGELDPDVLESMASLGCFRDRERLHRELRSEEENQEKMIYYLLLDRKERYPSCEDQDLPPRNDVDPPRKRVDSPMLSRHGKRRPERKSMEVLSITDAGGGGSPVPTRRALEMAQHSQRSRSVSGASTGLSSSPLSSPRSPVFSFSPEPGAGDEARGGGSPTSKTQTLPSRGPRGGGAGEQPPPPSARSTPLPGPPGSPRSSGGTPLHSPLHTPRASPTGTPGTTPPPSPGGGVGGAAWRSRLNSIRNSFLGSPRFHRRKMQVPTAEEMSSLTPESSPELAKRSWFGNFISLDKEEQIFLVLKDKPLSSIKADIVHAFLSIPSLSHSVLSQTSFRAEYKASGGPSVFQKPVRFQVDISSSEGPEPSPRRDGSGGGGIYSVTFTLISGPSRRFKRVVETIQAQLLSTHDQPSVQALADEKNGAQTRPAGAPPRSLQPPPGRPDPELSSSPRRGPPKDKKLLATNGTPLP

PIM1 (human) = PIM1 (human) (UniProt P11309)
Chain of PIM1 (human) (P11309 whole entry, looked up): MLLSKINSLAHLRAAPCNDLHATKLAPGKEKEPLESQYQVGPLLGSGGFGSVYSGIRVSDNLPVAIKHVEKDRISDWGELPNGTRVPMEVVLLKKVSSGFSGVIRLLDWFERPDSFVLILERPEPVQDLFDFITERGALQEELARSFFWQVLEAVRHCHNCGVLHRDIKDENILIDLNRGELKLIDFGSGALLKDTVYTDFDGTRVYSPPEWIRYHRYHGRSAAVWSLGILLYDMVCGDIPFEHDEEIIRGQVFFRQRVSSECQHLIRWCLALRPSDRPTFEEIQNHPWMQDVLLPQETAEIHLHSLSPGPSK

PAK6 (human) = PAK6 (human) (UniProt Q9NQU5)
Chain of PAK6 (human) (Q9NQU5 whole entry, looked up): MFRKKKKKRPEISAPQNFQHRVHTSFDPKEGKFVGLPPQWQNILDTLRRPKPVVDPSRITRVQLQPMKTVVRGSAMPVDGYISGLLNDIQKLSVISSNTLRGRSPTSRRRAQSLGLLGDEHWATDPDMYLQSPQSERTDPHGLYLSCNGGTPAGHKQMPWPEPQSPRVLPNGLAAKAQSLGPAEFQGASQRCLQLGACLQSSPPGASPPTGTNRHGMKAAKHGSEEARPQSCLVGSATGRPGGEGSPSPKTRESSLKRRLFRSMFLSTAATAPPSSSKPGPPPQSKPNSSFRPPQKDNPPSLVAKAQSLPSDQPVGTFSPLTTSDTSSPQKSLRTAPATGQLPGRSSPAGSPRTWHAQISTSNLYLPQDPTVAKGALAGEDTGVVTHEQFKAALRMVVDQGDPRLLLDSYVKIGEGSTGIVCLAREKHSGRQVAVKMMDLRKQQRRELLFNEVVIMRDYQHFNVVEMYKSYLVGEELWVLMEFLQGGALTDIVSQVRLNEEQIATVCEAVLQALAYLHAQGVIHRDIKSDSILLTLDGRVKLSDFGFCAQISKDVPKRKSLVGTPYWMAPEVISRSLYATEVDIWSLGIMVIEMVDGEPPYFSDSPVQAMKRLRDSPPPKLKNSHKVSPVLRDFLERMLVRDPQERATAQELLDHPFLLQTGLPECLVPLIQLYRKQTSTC

MELK (human) = MELK (human) (UniProt Q14680)
GSK3B (human) = GSK3B (human) (UniProt P49841); conditions: compound 1.0 µM
ERBB4 (human) = ERBB4 (human) (UniProt Q15303)
MAPK9 (human) = MAPK9 (human) (UniProt P45984)
Chain of MAPK9 (human) (P45984 whole entry, looked up): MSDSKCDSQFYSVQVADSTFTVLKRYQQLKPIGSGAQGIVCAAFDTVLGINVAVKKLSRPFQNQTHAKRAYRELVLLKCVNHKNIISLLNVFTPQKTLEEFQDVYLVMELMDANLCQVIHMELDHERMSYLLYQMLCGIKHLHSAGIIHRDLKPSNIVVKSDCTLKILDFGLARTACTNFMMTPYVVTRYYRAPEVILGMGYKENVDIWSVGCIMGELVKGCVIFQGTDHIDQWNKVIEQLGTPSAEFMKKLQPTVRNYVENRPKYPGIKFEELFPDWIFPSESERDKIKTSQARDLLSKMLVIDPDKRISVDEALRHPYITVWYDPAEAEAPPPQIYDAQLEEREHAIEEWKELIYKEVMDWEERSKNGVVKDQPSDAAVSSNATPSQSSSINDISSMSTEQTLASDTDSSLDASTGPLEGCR

MAP2K6 (human) = MAP2K6 (human) (UniProt P52564)
Chain of MAP2K6 (human) (P52564 whole entry, looked up): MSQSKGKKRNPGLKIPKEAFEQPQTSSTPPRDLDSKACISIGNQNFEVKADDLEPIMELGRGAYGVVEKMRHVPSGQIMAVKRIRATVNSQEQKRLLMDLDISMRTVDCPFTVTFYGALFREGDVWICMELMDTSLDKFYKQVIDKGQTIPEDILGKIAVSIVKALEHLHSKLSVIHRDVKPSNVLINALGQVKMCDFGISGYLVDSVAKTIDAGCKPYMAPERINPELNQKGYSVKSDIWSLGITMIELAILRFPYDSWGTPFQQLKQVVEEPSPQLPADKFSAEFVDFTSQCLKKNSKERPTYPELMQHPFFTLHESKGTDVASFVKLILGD

NTRK1 (human) = NTRK1 (human) (UniProt P04629)
MAP3K1 (human) = MAP3K1 (human) (UniProt Q13233); conditions: compound 0.01 µM
NUAK1 (human) = NUAK1 (human) (UniProt O60285)
HIPK3 (human) = HIPK3 (human) (UniProt Q9H422)

Chain of MST4 (human) (Q9P289 whole entry, looked up): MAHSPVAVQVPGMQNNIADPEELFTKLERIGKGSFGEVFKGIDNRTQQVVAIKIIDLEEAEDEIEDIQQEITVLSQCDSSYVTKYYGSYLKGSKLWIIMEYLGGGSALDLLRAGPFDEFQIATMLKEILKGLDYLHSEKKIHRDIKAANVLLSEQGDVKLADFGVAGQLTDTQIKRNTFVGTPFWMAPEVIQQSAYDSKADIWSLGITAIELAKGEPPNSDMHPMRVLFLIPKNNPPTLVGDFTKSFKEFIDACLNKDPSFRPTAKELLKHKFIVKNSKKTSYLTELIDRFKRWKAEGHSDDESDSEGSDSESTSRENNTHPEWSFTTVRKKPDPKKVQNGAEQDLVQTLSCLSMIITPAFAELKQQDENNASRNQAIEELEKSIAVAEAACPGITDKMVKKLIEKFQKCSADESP
Chain of MARK2 (human) (Q7KZI7 whole entry, looked up): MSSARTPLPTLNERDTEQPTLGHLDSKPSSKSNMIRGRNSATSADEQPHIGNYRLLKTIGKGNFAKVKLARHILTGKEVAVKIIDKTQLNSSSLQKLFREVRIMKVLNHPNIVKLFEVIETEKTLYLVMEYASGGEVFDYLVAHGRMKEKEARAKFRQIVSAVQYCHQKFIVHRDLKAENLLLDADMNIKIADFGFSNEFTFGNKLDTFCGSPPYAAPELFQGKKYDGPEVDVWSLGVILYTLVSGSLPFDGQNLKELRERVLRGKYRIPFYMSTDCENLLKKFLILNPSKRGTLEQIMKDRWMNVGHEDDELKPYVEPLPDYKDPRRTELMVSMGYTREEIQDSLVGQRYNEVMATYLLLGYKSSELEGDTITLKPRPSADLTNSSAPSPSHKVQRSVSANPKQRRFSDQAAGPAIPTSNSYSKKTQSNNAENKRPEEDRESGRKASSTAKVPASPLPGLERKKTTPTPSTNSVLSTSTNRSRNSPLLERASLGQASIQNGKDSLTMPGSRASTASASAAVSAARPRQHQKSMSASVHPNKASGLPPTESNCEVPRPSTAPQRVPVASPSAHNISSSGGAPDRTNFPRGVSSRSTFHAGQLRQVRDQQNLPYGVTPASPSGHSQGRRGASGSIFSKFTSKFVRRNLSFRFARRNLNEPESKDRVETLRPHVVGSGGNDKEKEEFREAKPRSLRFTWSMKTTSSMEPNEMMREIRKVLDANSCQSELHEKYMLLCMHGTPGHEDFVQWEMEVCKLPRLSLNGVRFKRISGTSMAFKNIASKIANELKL
Chain of MARK1 (human) (Q9P0L2 whole entry, looked up): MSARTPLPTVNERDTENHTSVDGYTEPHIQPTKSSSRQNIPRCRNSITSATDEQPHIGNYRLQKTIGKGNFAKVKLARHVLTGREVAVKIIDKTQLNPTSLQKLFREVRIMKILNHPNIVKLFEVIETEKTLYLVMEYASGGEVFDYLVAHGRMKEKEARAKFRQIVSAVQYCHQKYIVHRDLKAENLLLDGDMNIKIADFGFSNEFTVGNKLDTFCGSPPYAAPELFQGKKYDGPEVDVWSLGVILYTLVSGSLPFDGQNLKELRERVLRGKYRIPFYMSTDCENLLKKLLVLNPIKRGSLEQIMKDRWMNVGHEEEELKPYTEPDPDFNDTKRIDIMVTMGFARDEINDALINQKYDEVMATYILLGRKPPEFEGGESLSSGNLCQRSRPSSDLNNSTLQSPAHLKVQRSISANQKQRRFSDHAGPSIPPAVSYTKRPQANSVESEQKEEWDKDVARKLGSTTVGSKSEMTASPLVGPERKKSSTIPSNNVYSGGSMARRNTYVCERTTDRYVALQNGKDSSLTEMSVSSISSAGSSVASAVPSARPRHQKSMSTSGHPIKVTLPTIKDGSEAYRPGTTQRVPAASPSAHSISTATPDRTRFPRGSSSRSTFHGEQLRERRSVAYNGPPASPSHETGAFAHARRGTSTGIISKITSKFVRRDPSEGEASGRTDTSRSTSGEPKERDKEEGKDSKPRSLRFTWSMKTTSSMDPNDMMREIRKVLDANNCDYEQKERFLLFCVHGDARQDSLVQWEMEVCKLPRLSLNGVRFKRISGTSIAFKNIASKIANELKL

A residual activity (DYRK2 (human); compound 0.01 µM) of 89%, a residual activity (DYRK2 (human); compound 0.1 µM) of 85% and a residual activity (DYRK2 (human); compound 1.0 µM) of 93% were found for `COc1ccc(N(C(=O)Nc2c(C)cccc2C)c2cc(Nc3ccc(N4CCN(C)CC4)cc3)ncn2)c(OC)c1` in this work. It also gave a residual activity (EPHB3 (human); compound 0.01 µM) of 108%, a residual activity (EPHB3 (human); compound 0.1 µM) of 61% and a residual activity (EPHB3 (human); compound 1.0 µM) of 18%. It also gave a residual activity (MARK1 (human); compound 0.01 µM) of 88%, a residual activity (MARK1 (human); compound 0.1 µM) of 87% and a residual activity (MARK1 (human); compound 1.0 µM) of 53%. The residual activity (MAP3K7 TAB1 (human); compound 0.1 µM) was 110%, the residual activity (MAP3K7 TAB1 (human); compound 1.0 µM) was 84% and the residual activity (MST4 (human); compound 0.01 µM) was 100%. For the same molecule, the residual activity (MST4 (human); compound 0.1 µM) was 95%, the residual activity (MST4 (human); compound 1.0 µM) was 78% and the residual activity (MARK2 (human); compound 0.01 µM) was 101%. It also gave a residual activity (MARK2 (human); compound 0.1 µM) of 90%, a residual activity (MARK2 (human); compound 1.0 µM) of 63% and a residual activity (AURKA (human); compound 0.01 µM) of 98%. The residual activity (AURKA (human); compound 0.1 µM) was 91%, the residual activity (AURKA (human); compound 1.0 µM) was 70% and the residual activity (BRSK1 (human); compound 0.01 µM) was 103%. It also gave a residual activity (BRSK1 (human); compound 0.1 µM) of 99%, a residual activity (BRSK1 (human); compound 1.0 µM) of 86% and a residual activity (PIM1 (human); compound 0.01 µM) of 107%. For the same molecule, the residual activity (PIM1 (human); compound 0.1 µM) was 113%, the residual activity (PIM1 (human); compound 1.0 µM) was 111% and the residual activity (PAK6 (human); compound 0.01 µM) was 94%. It also gave a residual activity (PAK6 (human); compound 0.1 µM) of 101%, a residual activity (PAK6 (human); compound 1.0 µM) of 88% and a residual activity (MELK (human); compound 0.01 µM) of 105%. For the same molecule, the residual activity (MELK (human); compound 0.1 µM) was 93%, the residual activity (MELK (human); compound 1.0 µM) was 71% and the residual activity (GSK3B (human)) was 88%. For the same molecule, the residual activity (ERBB4 (human); compound 0.01 µM) was 90%, the residual activity (ERBB4 (human); compound 1.0 µM) was 18% and the residual activity (MAPK9 (human); compound 0.01 µM) was 103%. For the same molecule, the residual activity (MAPK9 (human); compound 0.1 µM) was 90%, the residual activity (MAPK9 (human); compound 1.0 µM) was 21% and the residual activity (MAP2K6 (human); compound 0.1 µM) was 101%. It also gave a residual activity (MAP2K6 (human); compound 1.0 µM) of 92%, a residual activity (NTRK1 (human); compound 0.01 µM) of 98% and a residual activity (NTRK1 (human); compound 1.0 µM) of 89%. It also gave a residual activity (MAP3K1 (human)) of 94%, a residual activity (NUAK1 (human); compound 0.01 µM) of 97% and a residual activity (NUAK1 (human); compound 0.1 µM) of 93%. It also gave a residual activity (NUAK1 (human); compound 1.0 µM) of 64%, a residual activity (HIPK3 (human); compound 0.01 µM) of 80% and a residual activity (HIPK3 (human); compound 0.1 µM) of 86%.
